Experimental data reported in patent US10201559B2, “Compositions of selenoorganic compounds and methods of use thereof” (Alltech, Inc., priority 2014, dated 2019).

System: beta-secretase BACE
Assay: Western blot, BACE in IMR-32 cells
Format: cell-based, human
Conditions: 150 ppb, 24 hr
Procedure: IMR-32 and AML12 cells were seeded on 6-well plates, and then treated with vehicle and various compounds for 6 and 24 hr, as described above. After treatments, cells were rinsed with ice-cold PBS, and lysed in the ice-cold RIPA buffer containing complete proteinase and phosphotase inhibitors (Themo-Fisher Scientific, Waltham, Mass.) on ice for 30 min. Cell lysates were collected using a cell scraper and transfer pipette, and then centrifuged at 12000 g for 30 min at 4° C. to remove the DNA pellet and obtain the protein extract. Protein levels in the supernatant of these cell lysates were determined using the Pierce Micro-BCA protein assay kit (Themo Scientific-Piece Biotechnology, Rockford, Ill.) according to the manufacturer's protocol.
For Western blot analysis, five micrograms of total proteins from vehicle- and compound(s)-treated cells were subjected to SDS-PAGE gel separation, and then transferred to PVDF membranes, as described previously (Reddy, Liu et al. 2008 Science). […] All primary antibodies except G6PC (Santa Cruz), Actb (Li-COR, Lincoln, Nebr.), Elf2bε and pElf2bε (Abcam, Cambridge, Mass.) were purchased from Cell Signaling Inc. Positive signals on the membrane blots were detected using the Amersham's enhanced chemiluminescence Western Blotting Prime Detection reagents (GE healthcare Lifescience, Pittsburgh, Pa.). […]

SMILES: C[Se]C[C@H]1O[C@@H](n2cnc3c(N)ncnc32)C(O)C1O (stereo in doubt) [compound C, 5′-Methylselenoadenosine]
- beta-secretase BACE protein: but not PEN2 and beta-secretase BACE proteins were attenuated
